Data published in PubChem BioAssay (NCI).
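In this assay, cells in 96-well plates receive the compound at five concentrations for 48 hours. Endpoints are linearly interpolated between the surrounding concentrations. TGI denotes the concentration required for complete inhibition of growth.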

Experiments:
Test in all cases: inhibition of tumour cell growth, NCI panel, 48 h
[1] = system: MOLT-4 leukemia
[2] = system: KM12 colon
[3] = system: OVCAR-4 ovarian
[4] = system: OVCAR-3 ovarian
[5] = system: SW-620 colon
[6] = system: NCI-H226 lung
[7] = system: SK-MEL-28 melanoma
[8] = system: TK-10 renal
[9] = system: U251 CNS
[10] = system: HCT-116 colon
[11] = system: SF-295 CNS
[12] = system: UO-31 renal
[13] = system: HOP-62 NSCLC
[14] = system: SK-OV-3 ovarian
[15] = system: SN12C renal
[16] = system: CCRF-CEM leukemia
[17] = system: K-562 leukemia
[18] = system: KM20L2 colon
[19] = system: M19-MEL melanoma
[20] = system: HT29 colon
[21] = system: SNB-75 CNS
[22] = system: SNB-19 CNS
[23] = system: OVCAR-8 ovarian
[24] = system: DLD-1 colon
[25] = system: M14 melanoma
[26] = system: CAKI-1 renal
[27] = system: SNB-78 CNS
[28] = system: A498 renal
[29] = system: RPMI-8226 leukemia
[30] = system: 786-0 renal
[31] = system: SF-539 CNS
[32] = system: HOP-92 NSCLC
[33] = system: UACC-62 melanoma
[34] = system: OVCAR-5 ovarian
[35] = system: NCI-H460 lung
[36] = system: COLO 205 colon
[37] = system: HOP-18 NSCLC
[38] = system: DMS 114 small cell lung
[39] = system: NCI-H23 lung
[40] = system: HCT-15 colon
[41] = system: ACHN renal
[42] = system: NCI-H522 lung
[43] = system: SF-268 CNS
[44] = system: IGROV1 ovarian
[45] = system: SR leukemia
[46] = system: LXFL 529 NSCLC
[47] = system: HL-60(TB) leukemia
[48] = system: SK-MEL-2 melanoma
[49] = system: LOX IMVI melanoma
[50] = system: UACC-257 melanoma
[51] = system: A549 NSCLC
[52] = system: SK-MEL-5 melanoma
[53] = system: MALME-3M melanoma
[54] = system: EKVX NSCLC
[55] = system: MCF7 breast
[56] = system: PC-3 prostate
[57] = system: MDA-MB-231 breast
[58] = system: NCI/ADR-RES ovarian
[59] = system: MDA-MB-435
[60] = system: RXF 393 renal
[61] = system: MDA-N
[62] = system: BT-549 breast
[63] = system: DU-145 prostate
[64] = system: T-47D breast
[65] = system: HCC-2998 colon
[66] = system: HS 578T breast

**Q.** How did the TGI [1] turn out when `CSc1nc(NC2OC(COC(C)=O)C(OC(C)=O)C(OC(C)=O)C2OC(C)=O)c(-c2csc(N)n2)c(=O)n1C` (configuration not stated) was run?
**A.** > 100 µM

**Q.** What about the TGI [2] of the same compound?
**A.** > 100 µM

**Q.** And the TGI [3]?
**A.** 55.1 µM

**Q.** What about the TGI [4] of the same compound?
**A.** > 100 µM

**Q.** And the TGI [5]?
**A.** > 100 µM

**Q.** And the TGI [6]?
**A.** 81.7 µM

**Q.** And the TGI [7]?
**A.** > 100 µM

**Q.** And the TGI [8]?
**A.** > 100 µM

**Q.** What about the TGI [9] of the same compound?
**A.** > 100 µM

**Q.** And the TGI [10]?
**A.** > 100 µM

**Q.** What about the TGI [11] of the same compound?
**A.** > 100 µM

**Q.** And the TGI [12]?
**A.** > 100 µM

**Q.** What about the TGI [13] of the same compound?
**A.** 66.9 µM

**Q.** What about the TGI [14] of the same compound?
**A.** > 100 µM

**Q.** What about the TGI [15] of the same compound?
**A.** > 100 µM

**Q.** And the TGI [16]?
**A.** > 100 µM

**Q.** What about the TGI [17] of the same compound?
**A.** > 100 µM

**Q.** And the TGI [18]?
**A.** > 100 µM

**Q.** What about the TGI [19] of the same compound?
**A.** > 100 µM

**Q.** What about the TGI [20] of the same compound?
**A.** > 100 µM

**Q.** What about the TGI [21] of the same compound?
**A.** 47.8 µM

**Q.** What about the TGI [22] of the same compound?
**A.** > 100 µM

**Q.** What about the TGI [23] of the same compound?
**A.** 86.9 µM

**Q.** What about the TGI [24] of the same compound?
**A.** > 100 µM

**Q.** What about the TGI [25] of the same compound?
**A.** > 100 µM

**Q.** What about the TGI [26] of the same compound?
**A.** > 100 µM

**Q.** And the TGI [27]?
**A.** 76.8 µM

**Q.** What about the TGI [28] of the same compound?
**A.** > 100 µM

**Q.** And the TGI [29]?
**A.** > 100 µM

**Q.** And the TGI [30]?
**A.** 39.4 µM

**Q.** And the TGI [31]?
**A.** > 100 µM

**Q.** What about the TGI [32] of the same compound?
**A.** 63.1 µM

**Q.** And the TGI [33]?
**A.** 89.4 µM

**Q.** What about the TGI [34] of the same compound?
**A.** > 100 µM

**Q.** And the TGI [35]?
**A.** > 100 µM

**Q.** And the TGI [36]?
**A.** > 100 µM

**Q.** And the TGI [37]?
**A.** > 100 µM

**Q.** What about the TGI [38] of the same compound?
**A.** > 100 µM

**Q.** What about the TGI [39] of the same compound?
**A.** > 100 µM

**Q.** And the TGI [40]?
**A.** > 100 µM

**Q.** And the TGI [41]?
**A.** > 100 µM

**Q.** What about the TGI [42] of the same compound?
**A.** > 100 µM

**Q.** What about the TGI [43] of the same compound?
**A.** > 100 µM

**Q.** What about the TGI [44] of the same compound?
**A.** > 100 µM

**Q.** What about the TGI [45] of the same compound?
**A.** > 100 µM

**Q.** What about the TGI [46] of the same compound?
**A.** > 100 µM

**Q.** What about the TGI [47] of the same compound?
**A.** > 100 µM

**Q.** What about the TGI [48] of the same compound?
**A.** > 100 µM

**Q.** And the TGI [49]?
**A.** > 100 µM

**Q.** What about the TGI [50] of the same compound?
**A.** > 100 µM

**Q.** What about the TGI [51] of the same compound?
**A.** > 100 µM

**Q.** What about the TGI [52] of the same compound?
**A.** > 100 µM

**Q.** And the TGI [53]?
**A.** > 100 µM

**Q.** What does the source list for `O=C(NC(Nc1ccc(F)cc1)(C(F)(F)F)C(F)(F)F)C(C(F)(F)F)C(F)(F)F`?
**A.** TGI [1]: 36.2 µM; TGI [2]: > 100 µM; TGI [54]: > 100 µM; TGI [55]: > 100 µM; TGI [3]: > 43.9 µM; TGI [4]: > 100 µM; TGI [5]: > 100 µM; TGI [6]: > 100 µM; TGI [7]: > 100 µM; TGI [8]: > 100 µM; TGI [9]: > 100 µM; TGI [10]: > 100 µM; TGI [56]: > 100 µM; TGI [11]: > 100 µM; TGI [57]: > 100 µM; TGI [12]: > 62.5 µM; TGI [13]: > 100 µM; TGI [14]: > 100 µM; TGI [58]: > 100 µM; TGI [15]: > 100 µM; TGI [16]: 19.7 µM; TGI [17]: > 100 µM; TGI [20]: > 100 µM; TGI [21]: > 100 µM; TGI [22]: > 100 µM; TGI [23]: > 100 µM; TGI [25]: > 100 µM; TGI [26]: > 100 µM; TGI [59]: > 100 µM; TGI [28]: > 100 µM; TGI [29]: 60 µM; TGI [30]: > 100 µM; TGI [31]: > 85.9 µM; TGI [32]: > 100 µM; TGI [60]: > 100 µM; TGI [33]: > 100 µM; TGI [34]: > 100 µM; TGI [35]: > 100 µM; TGI [61]: > 100 µM; TGI [36]: > 100 µM; TGI [39]: > 100 µM; TGI [62]: > 100 µM; TGI [40]: > 100 µM; TGI [41]: > 100 µM; TGI [42]: > 89.6 µM; TGI [63]: > 100 µM; TGI [43]: > 100 µM; TGI [44]: > 51.5 µM; TGI [45]: > 95.8 µM; TGI [47]: 15.1 µM; TGI [64]: > 100 µM; TGI [48]: 25.2 µM; TGI [49]: > 100 µM; TGI [50]: > 100 µM; TGI [51]: > 100 µM; TGI [65]: > 100 µM; TGI [52]: > 100 µM; TGI [66]: > 90.5 µM; TGI [53]: > 100 µM
